{
  "source": "patent US7232845B2",
  "about": "“Active substance combinations comprising insecticidal and acaricidal properties” (Bayer CropScience AG, priority 2000, dated 2007)",
  "data": [
    {"test_system": "whitefly Bemisia tabaci", "assay": "Bemisia test (cotton plants infested with whitefly, immersed in active compound preparation)", "format": "in vivo", "settings": "single active compound, 4 ppm; eggs, larvae and pupae on cotton plants (Gossypium hirsutum), immersion", "text": "The expected action for a given combination of two active compounds can be calculated as follows, using the formula of S. R. Colby, Weeds 15 (1967), 20–22:\n• X is the efficacy, expressed as % of the untreated control, when employing active compound A at an application rate of m g/ha or in a concentration of m ppm, • Y is the efficacy, expressed as % of the untreated control, when employing active compound B at an application rate of n g/ha or in a concentration of n ppm and • E is the efficacy, expressed as % of the untreated control, when employing active compounds A and B at application rates of m and n g/ha or in a concentration of m and n ppm, then\n[formula] If the actual insecticidal kill rate exceeds the calculated value, the action of the combination is superadditive, i.e. a synergistic effect is present. In this case, the actually observed insecticidal kill rate must exceed the value calculated using the above formula for the expected insecticidal kill rate (E).\n• Solvent: 7.5 parts by weight of dimethylformamide • Emulsifier: 2.5 parts by weight of alkylaryl polyglycol ether\nTo produce a suitable preparation of active compound, 1 part by weight of active compound is mixed with the stated amounts of solvent and emulsifier, and the concentrate is diluted with water to the desired concentration.\nCotton plants (Gossypium hirsutum) which are infested with eggs, larvae and pupae of the whitefly Bemisia tabaci are immersed in a preparation of active compound of the desired concentration.\nAfter the desired period of time, the kill in % is determined. 100% means that all animals have been killed; 0% means that none of the animals have been killed.", "units": {"Kill rate in % after 10^d": "%"}, "values": [
      {"smiles": "Cc1c(COC(=O)C2C(/C=C(\\Cl)C(F)(F)F)C2(C)C)cccc1-c1ccccc1", "note": "(stereo not drawn) [Bifenthrin, bifenthrin]", "Kill rate in % after 10^d": 0},
      {"smiles": "CC1(C)C(C=C(Cl)Cl)C1C(=O)OC(C#N)c1ccc(F)c(Oc2ccccc2)c1", "note": "(stereo not drawn) [Cyfluthrin, cyfluthrin]", "Kill rate in % after 10^d": 0},
      {"smiles": "Cc1cc(C)c(C2=C(OC(=O)CC(C)(C)C)C3(CCCC3)OC2=O)c(C)c1", "note": "[Ex. (I-b-1)]", "Kill rate in % after 10^d": 0}
    ]}
  ]
}
